Experimental data from patent US20040120932A1, “In vitro-derived adult pluripotent stem cells and uses therefor” (priority 2000, published 2004).

Columns and labels:
human telomerase (“TRT”) = test: Semi-quantitative RT-PCR of telomerase (TRT) gene expression; assay type: cell-based; conditions: NUCREM cells subsequently treated with 1-2 μM retinoic acid, day five (treatment regimen 3)
Procedure: 5-aza-2′-deoxycytidine (Sigma, St. Louis) was added at a concentration of 10-25 μM to cultures of human adult keratinocytes that were approximately 40% to 80% confluent. These cultures were further incubated for approximately four (4) days at 37° C. in an atmosphere of 5-10% CO2. After four days in the presence of 5-aza-2′-deoxycytidine, trichostatin A (Sigma, St. Louis) was added to the cultures at a concentration of 100-250 ng/ml. Cultures were further incubated for approximately one (1) day, as described above. RNA was extracted from some of the aliquots of cultures at this point (treatment regimen 1) for subsequent RT-PCR analysis. Other aliquots of cultures were subsequently treated as follows. […]
(§1) RT-PCR was performed using the QIAGEN® OneStep RT-PCR Kit (Qiagen Inc., Valencia, Calif.) according to the manufacturer's instructions. […] To control for the quality of the extracted RNA and to serve as an internal quantification marker, human glyceraldehyde 3-phosphate dehydrogenase (“GAPDH”) oligonucleotide primers were included in the RT-PCR reaction.
(§2) The RT-PCR products were run out on a 2% agarose gel, which was then stained with ethidium bromide. The intensity of the resultant DNA bands were quantified using the PHORETIX™ TotalLab densitometry software package developed by Nonlinear USA (Durham, N.C.). […]

[1] = test system: neurofilament heavy chain (“NF”); test: Semi-quantitative RT-PCR of neurofilament heavy chain (NF) gene expression; assay type: cell-based, human; conditions: NUCREM cells treated with 1-2 μM retinoic acid, day five (treatment regimen 3); ±45% SEM, three experiments
Procedure: (§3) Subsequent to cyclin B treatment, the cultures of in vitro derived adult pluripotent stem cells were cultured in the presence of approximately 1-2 μM retinoic acid (“RA”) (Sigma, St. Louis) for five (5) to 10 days. […] By day five (5) of retinoic acid treatment, approximately 50% of the cells in culture attained a neuron-like morphology (FIG. 1). At day five of RA treatment (treatment regimen 3), RNA was extracted from the cultures for RT-PCR analysis. […]
as §1, §2

α1-antitrypsin (“αAT”) = test: Semi-quantitative RT-PCR of α1-antitrypsin (αAT) gene expression; assay type: cell-based, human; conditions: NUCREM cells treated with 1-2 μM retinoic acid, day five (treatment regimen 3); ±94% SEM, three experiments
Procedure: as §3, §1, §2

cardiac actin (“cACT”) = test: Semi-quantitative RT-PCR of cardiac actin (cACT) gene expression; assay type: cell-based, human; conditions: NUCREM cells treated with 1-2 μM retinoic acid, day five (treatment regimen 3); ±118% SEM, three experiments
Procedure: as §3, §1, §2

[2] = test system: in vitro derived adult pluripotent stem cells (“NUCREM™ cells”); test: Retinoic acid induced differentiation of in vitro derived adult pluripotent stem cells (morphology); assay type: cell-based, human; conditions: approximately 1-2 μM retinoic acid, day five
Procedure: Subsequent to cyclin B treatment, the cultures of in vitro derived adult pluripotent stem cells were cultured in the presence of approximately 1-2 μM retinoic acid (“RA”) (Sigma, St. Louis) for five (5) to 10 days. […] By day five (5) of retinoic acid treatment, approximately 50% of the cells in culture attained a neuron-like morphology (FIG. 1). At day five of RA treatment (treatment regimen 3), RNA was extracted from the cultures for RT-PCR analysis.

In the case of `CC1=C(/C=C/C(C)=C/C=C/C(C)=C/C(=O)O)C(C)(C)CCC1` [retinoic acid], the “decrease in levels of expression of TRT” value (human telomerase (“TRT”)) was “approximately 50%”, the “increase in levels of expression of NF relative to untreated keratinocytes” value [1] was 89% and the “increase in levels of expression of αAT relative to untreated keratinocytes” value (α1-antitrypsin (“αAT”)) was 343%. For the same compound, the “increase in levels of expression of cACT relative to untreated keratinocytes” value (cardiac actin (“cACT”)) was 667% and the “cells in culture that attained a neuron-like morphology” value [2] was “approximately 50%”.
